Test results taken from US12102634B2, “Use of berbamine or its analogue for preventing or treating RNA virus infection” (City University of Hong Kong, priority 2019, dated 2024).
Entries after “also recorded” stand apart in the source; their conditions may differ. Read-outs that look alike come from different tables or passages of the source.

What was measured:
ZIKV [1] = assay: Viral positive RNA strand hybridization in host cells treated with calcium chelator; type: cell-based, Zika virus
JEV [2] = assay: Western blot of JEV envelope protein in A549 cells; details: dose dependent
JEV [3] = assay: High-content image assay (DsRNA immunostaining), JEV infection of A549 cells; details: for JEV infection in A549 host cells (relative infectivity, FIG. 8A): 13 compounds from virtual screening; for entry of JEV into the host cells (FIG. 8B): A549 cells; for entry of JEV into the host cells (FIG. 8B) / JEV infection of host cells: about 50 MOI JEV; for JEV infection of host cells: A549 cells pretreated 1 h
JEV [4] = assay: High-content image assay, JEV infection of JEG-3 cells; details: JEG-3 cells pretreated 1 h, about 50 MOI, 18 h
ZIKV [5] = assay: High-content image assay, ZIKV infection of JEG-3 cells; details: JEG-3 cells pretreated 1 h, about 50 MOI, 18 h
JEV [6] = assay: Western blot of JEV-NS1 expression in JEV-infected A549 cells; details: A549 cells pretreated 1 h
ZIKV [7] = assay: Western blot of ZIKV-E expression in ZIKV-infected A549 cells; details: A549 cells pretreated 1 h
TRPMLs = assay: ML-SA1-induced cytosolic Ca2+ increase in Fura-2-loaded HeLa cells; type: cell-based
Procedure: (§1) HeLa cells were grown in 24-well plates to ˜80% confluency. The cells were then loaded with HBSS (Gibco, 14025092) containing 4 μM Fura-2 AM (Invitrogen, F1221) and 0.4% Pluronic™ F-127 (Invitrogen, P3000MP) at room temperature for 30 min. The cells were then washed with Ca^2+-free HBSS containing 2 mM EGTA and incubated in Ca^2+-free HBSS in the presence or absence of berbamine (10 μM) at room temperature for another 30 min. Fluorescence images were acquired at 3 s intervals by alternate excitation at 340 nm and 380 nm with emission at 510 nm using a Nikon Eclipse Ti-S Calcium imaging system. Approximately 1 min after live cell imaging, 200 μM GPN (Abcam, ab145914) or 25 μM ML-SA1 (Tocris Bioscience, 4746) was added to the cells to trigger Ca2+ release from the lysosomes.

JEV [8] = assay: JEV lethal challenge in mice; type: in vivo, BALB/c mice; details: 15 days
Procedure: JEV-infected with berbamine-treated group. For infection, mice were injected intraperitoneally with approximately 10^6.5 TCID50 of JEV. For the berbamine treatment group, mice were injected intraperitoneally with a dose of 15 mg/kg berbamine or PBS daily. For the control-vehicle group, mice were injected intraperitoneally with a dose of 50 mg/kg PBS daily. Survival rate and change of body weight if the mice in each group were monitored for 15 days after JEV injection.

EV-A71 = assay: High-content image assay, EV-A71 infection of RD cells; type: cell-based, enterovirus EV-A71 (EV-71); details: 10 MOI EV-71, read-out: EC50 against EV-A71 infection in RD cells
Excerpt: After viral infection, the cells are fixed.

lentivirus = assay: Lentivirus (histone B-RFP) infection of A549 cells; type: cell-based; details: pretreated A549 cells, lentivirus encoding histone B-RFP
[9] = tested on: MLV-SARS-CoV-2 S pseudotyped particles; type: cell-based
[10] = tested on: MERS-SARS-CoV S pseudotyped particles; type: cell-based
MERS-CoV = type: cell-based
SARS-CoV-2 [11] = assay: SARS-CoV-2 infection of Vero-E6 cells, virus titration assay; type: cell-based; details: Severe acute respiratory syndrome coronavirus 2, Vero C1008, read-out: EC50, SARS-CoV-2 viral yield by virus titration assay
Procedure: FIG. 12F is a plot showing the inhibition rate determined by using virus titer measurement, in which Vero-E6 cells were treated with berbamine at the indicated concentrations for 3 h, followed by infection with SARS-CoV-2.

lysosomal Ca^2+ channels = assay: GPN-induced Ca2+ release from lysosomes in Fura-2-loaded HeLa cells; type: cell-based; details: 10 μM, 200 μM GPN
Procedure: as §1

Huh7 cells = assay: Secretion of extracellular vesicles by Huh7 cells, nanoparticle tracking analyzer; type: cell-based
Procedure: The EVs were collected from the culture medium of control or berbamine-treated Huh7 cells, and their concentration and distribution of sizes were determined with a nanoparticle tracking analyzer.
The inventors then examined whether these EVs contain elevated levels of ACE2 or DPP4 in the berbamine-treated group when compared with the control group. Thus, EVs in the culture medium from the control and berbamine-treated Huh7 cells were collected by ultracentrifugation, and the protein levels of ACE2 and DPP4 were analyzed by immunoblot analysis. […] The inventors also speculated that the increase in the secretion of ACE2 and DPP4-containing exosomes out of cells might lead to the reduced levels of these receptors in berbamine-treated cells. […] Similar results regarding the effects of berbamine on the expression of ACE2 in cells or EVs have also observed in A549 cells (FIGS. 15D and 15E). […] This leads to an increase in the level of secretion of ACE2 or DPP4 via EVs and a concomitant decrease in their levels at the plasma membrane.
Purification of extracellular vesicles from the culture medium-A549 cells or Huh7 cells were grown in 15-cm dishes to ˜80% confluency. The cells were then rinsed with PBS and incubated in EV-depleted complete medium containing DMSO or berbamine (25 μM) for 48 h. […]

ACE2 = type: cell-based
DPP4 = type: cell-based
SARS-CoV-2 [12] = assay: in vitro; details: African green monkey
[13] = Cytotoxicity in Vero cells; details: African green monkey
[14] = Cytotoxicity in Hela cells; details: human
[15] = Cytotoxicity in A549 cells; details: human
[16] = Cytotoxicity in Huh7 cells; details: human
[17] = Cytotoxicity in BHK-21 cells; details: Syrian hamster
SARS-CoV-2 [18] = assay: microbe, parasite or virus in culture; details: Severe acute respiratory syndrome coronavirus 2, Vero C1008, read-out: EC50, SARS-CoV-2 viral yield by qRT-PCR assay
JEV [19] = assay: JEV-induced cell death in A549 or BHK-21 cells; details: pretreated A549 cells or BHK-21 cells
JEV [20] = assay: Virus titration assay, JEV production in A549 cells; details: A549 cells pretreated
DENV-2 = assay: DsRNA immunostaining, DENV-2 infection of A549 cells; details: pretreated 1 h, about 10 MOI DENV-2, dose dependent
ZIKV [21] = assay: ZIKV entry, anti-ZIKV envelope protein immunostaining in A549 cells; details: ZIKV on ice 1 h, then 37° C. 40 min
ZIKV [22] = assay: High-content image assay (DsRNA immunostaining), ZIKV infection of A549 cells; details: for ZIKV infection of host cells: A549 cells pretreated 1 h, about 50 MOI ZIKV
[23] = 15 mg/kg intraperitoneally daily, vs control group
[24] = EVs from treated Huh7 cell culture medium
[25] = Vero-E6 cells, cycloheximide, 50 μM, 6 h

SMILES: CC(=O)OCOC(=O)CN(CC(=O)OCOC(C)=O)c1ccccc1OCCOc1ccccc1N(CC(=O)OCOC(C)=O)CC(=O)OCOC(C)=O [BAPTA-AM]
- viral positive RNA strand inside host cells (ZIKV [1]): no ZIKV positive RNA strand was spotted
- expression of JEV envelope protein (JEV [2]): markedly inhibited

SMILES: COc1cc(C(=O)N2c3ccccc3CCC2C)cc(OC)c1OC (stereo not drawn) [Compound #1]
- JEV infection in A549 host cells (relative infectivity, FIG. 8A) (JEV [3]): highest potency
- entry of JEV into the host cells (FIG. 8B) (JEV [3]): effectively block

SMILES: COc1cc2c(cc1OC)C(C)N(C(=O)c1ccc(Br)cc1)CC2 (stereo not drawn) [Compound #7]
- JEV infection in A549 host cells (relative infectivity, FIG. 8A) (JEV [3]): highest potency
- entry of JEV into the host cells (FIG. 8B) (JEV [3]): effectively block

SMILES: COc1cc2c(cc1OC)C(c1cc(OC)c(OC)c(OC)c1)OCC2 (stereo not drawn) [Compound #9]
- JEV infection in A549 host cells (relative infectivity, FIG. 8A) (JEV [3]): highest potency
- entry of JEV into the host cells (FIG. 8B) (JEV [3]): effectively block

SMILES: COc1cccc(C(=O)CC2c3c(cc4c(c3OC)OCO4)CCN2C)c1 (stereo not drawn) [Compound #11]
- JEV infection in A549 host cells (relative infectivity, FIG. 8A) (JEV [3]): highest potency
- entry of JEV into the host cells (FIG. 8B) (JEV [3]): effectively block

SMILES: COc1cc2c3cc1Oc1c(OC)c(OC)cc4c1[C@@H](Cc1ccc(OC(=O)c5ccc([N+](=O)[O-])cc5)c(c1)Oc1ccc(cc1)C[C@@H]3N(C)CC2)N(C)CC4 [E6 berbamine]
- JEV infection in JEG-3 cells (JEV [4]): significantly inhibited
- ZIKV infection in JEG-3 cells (ZIKV [5]): significantly inhibited
- protein expression of JEV-NS1 (JEV [6]): strong inhibition
- protein expression of ZIKV-E (ZIKV [7]): strong inhibition

SMILES: CC1CC(C)(C)N(C(=O)CN2C(=O)c3ccccc3C2=O)c2ccccc21 (stereo not drawn) [ML-SA1, reference compound]
- cytosolic Ca2+ levels (agonist effect) (TRPMLs; 25 μM): markedly increased

SMILES: COc1cc2c3cc1Oc1c(OC)c(OC)cc4c1[C@@H](Cc1ccc(O)c(c1)Oc1ccc(cc1)C[C@@H]3N(C)CC2)N(C)CC4 [berbamine]
- body weight change of mice after JEV challenge (JEV [8]; [23]): less weight changes
- survival rate of mice after JEV challenge (JEV [8]; [23]): increases the survival rate
- survival rate of mock (uninfected) mice given compound vs mock group (JEV [8]; mock group with 15 mg/kg): same survival rate
- EC50 (EV-A71): ~17.3 µM
- EC50 (EV-A71; Enterovirus A, EV71 / EVA71, RD): ~17 µM
- lentivirus infection of A549 cells (lentivirus): abolished
- entry of MLV-SARS-CoV-2 S pseudovirus particles [9]: effectively inhibited; also recorded: inhibited the entry
- entry of MERS-SARS-CoV S pseudovirus particles [10]: effectively inhibited; also recorded: inhibited the entry
- extracellular level of MERS-CoV RNA (MERS-CoV): significantly decreased
- intracellular level of MERS-CoV RNA (MERS-CoV): significantly decreased
- EC50 (SARS-CoV-2 [11]): ~4.7 µM
- GPN-induced cytosolic Ca2+ increase (lysosomal Ca^2+ channels): significantly inhibited
- ML-SA1-induced cytosolic Ca2+ increase (TRPMLs; 10 μM, 25 μM ML-SA1): significantly inhibited
- secretion of EVs (Huh7 cells): significantly promoted
- level of ACE2 in EVs (ACE2; [24]): markedly increased
- level of ACE2 in cells (ACE2; [25]): markedly decreased
- level of DPP4 in EVs (DPP4; [24]): markedly increased
- level of DPP4 in cells (DPP4; [25]): markedly decreased
- selectivity ratio (SARS-CoV-2 [12]): 48.9
- CC50 [13]: 115 ± 5.3 µM
- CC50 [14]: 115 ± 3.6 µM
- CC50 [15]: 127 ± 3.9 µM
- CC50 [16]: 90.4 ± 2.98 µM
- CC50 [17]: 127 ± 2.43 µM
- EC50 (SARS-CoV-2 [18]): ~2.3 µM
- JEV-induced cell death (JEV [19]): markedly reduced
- production of JEV (virus titer) (JEV [20]): significantly inhibited; also recorded: markedly inhibited
- DENV-2 infection in A549 cells (DENV-2): significantly inhibit
- JEV infection in JEG-3 cells (JEV [4]): significantly inhibited
- ZIKV infection in JEG-3 cells (ZIKV [5]): significantly inhibited
- protein expression of JEV-NS1 (JEV [6]): markedly inhibited
- protein expression of ZIKV-E (ZIKV [7]): markedly inhibited
- entry of ZIKV into host cells (ZIKV [21]): inhibitory effect
- selectivity ratio (JEV [3]; human): 78.2
- selectivity ratio (ZIKV [22]; human): 58.4

SMILES: COc1ccc2cc1Oc1ccc(cc1)C[C@H]1c3cc(c(OC)cc3CCN1C)Oc1c(O)c(OC)cc3c1[C@H](C2)N(C)CC3 [fangchinoline]
- DENV-2 infection in A549 cells (DENV-2): significantly inhibit
- JEV infection in JEG-3 cells (JEV [4]): significantly inhibited
- ZIKV infection in JEG-3 cells (ZIKV [5]): significantly inhibited
- JEV infection of host cells (JEV [3]): significantly inhibited
- ZIKV infection of host cells (ZIKV [22]): significantly inhibited

SMILES: COc1ccc2cc1Oc1ccc(cc1)C[C@H]1c3cc(c(OC)cc3CCN1C)Oc1c(OC)c(OC)cc3c1[C@@H](C2)N(C)CC3 [isotetrandrine]
- DENV-2 infection in A549 cells (DENV-2): significantly inhibit
- JEV infection in JEG-3 cells (JEV [4]): significantly inhibited
- ZIKV infection in JEG-3 cells (ZIKV [5]): significantly inhibited
- JEV infection of host cells (JEV [3]): significantly inhibited
- ZIKV infection of host cells (ZIKV [22]): significantly inhibited
